Data reported in patent publication US6254898A, “Nutraceutical composition for protection against solar radiation” (Protective Factors, Inc., priority 2000, dated 2001).

Legend:
[1] = Superoxide scavenging activity in a non-enzymatic superoxide generating system; format: biochemical; conditions: at the dilutions tested
Procedure: (§1) The cytotoxic effects of ultraviolet A irradiation on mammalian cells (e.g., skin fibroblasts) have been attributed largely to photoreactions that generate reactive oxygen species, such as superoxide and hydrogen peroxide. The free radical scavenging activity of the blend and its components was determined in vitro using spectrophotometric assays (Yen, G. C. and Duh, P. D., J. Agric. Food Chem., 42: 629-632, 1994; Facino, R. M., Carini, M., Aldini, G., Berti, F., and Rossoni, G., Planta Med., 65: 614-619, 1999). The superoxide scavenging activity was assessed in a non-enzymatic system. The reduction of the stable free radical DPPH (2,2-diphenyl-1-picrylhydrazyl radical), indicative of the neutralizing action upon the already formed free radicals, also was determined in a cell-free system. […]
(§2) The superoxide scavenging activity was determined in a superoxide generating system containing 20 μM of phenazine methosulfate, 156 μM of β-NADH, 50 mM of phosphate buffer, and the extracts at various levels. The reaction was initiated by adding nitroblue tetrazolium (25 μM) and the reduction was monitored using a spectrophotometer at 556 nm. […] The reduction in absorbence was measured using a spectrophotometer at 515 nm. […] The percent inhibition is expressed as the quenching ratio represented by the following formula: [formula]

[2] = biological target: T1, Trypsin Type III from bovine pancreas (Bos taurus, UniProt P00760); assay: Trypsin inhibitory activity (BAPNA substrate); format: biochemical; conditions: at the dilutions tested for the blend
T1 construct: purchased Sigma; host or cells: bovine pancreas
T1 sequence (P00760 24-246): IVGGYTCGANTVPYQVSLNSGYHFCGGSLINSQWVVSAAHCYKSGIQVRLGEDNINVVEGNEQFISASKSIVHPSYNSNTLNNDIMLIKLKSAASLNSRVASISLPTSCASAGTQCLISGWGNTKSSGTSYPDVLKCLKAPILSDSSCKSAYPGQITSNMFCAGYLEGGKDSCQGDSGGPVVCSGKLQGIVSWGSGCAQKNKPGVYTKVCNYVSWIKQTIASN
Procedure: Serine protease inhibitory activity was determined in vitro by measuring the trypsin inhibitory activity of the blend and its components. Trypsin inhibitory activity was determined by the spectrophotometric determination of the release of p-nitroaniline from a synthetic substrate N-α-benzoyl-DL-arginine-p-nitroanilide hydrochloride (BAPNA) (Parellada, J. and Guinea, M., J. Nat. Prod., 58: 823-829, 1995; Geiger, R. and Fritz, H., In Methods of Enzymatic Analysis, Bergmeyer, H. V., et al (Eds), Verlag-Chemie, Basel, Switzerland, Vol. V, p. 119-129, 1984).
Trypsin Type III from bovine pancreas, BAPNA, and p-nitroaniline were obtained from Sigma. The inventive blend and its components were supplied in a capsule containing: green tea extract, 250 mg; lutein, 15 mg; Se, 50 mcg; and lipoic acid, 50 mg. The capsule's contents were extracted in ethanol [0.5 g (contents of one capsule) in 5 ml ethanol and the components at concentrations incorporated in the blend in 5 ml ethanol].
Aliquots of the enzyme solution (0.25 ml of a 1060 units/ml solution in 0.05 M Tris buffer, pH 7.8) and the buffer (0.25 ml) with various concentrations of the test extracts and without extracts (reference solution) were pre-incubated at 37° C. for 10 min. Blank samples were prepared by inactivating the enzyme with 0.5 ml of 2 M acetic acid before incubation. The enzymatic reaction was started by adding to the reaction mixture 1.25 ml of the substrate solution (1 mM in 0.05 M Tris buffer, pH 7.8). The mixture was incubated for 10 min and the reaction was stopped by adding 0.5 ml of 2 M acetic acid. The p-nitroaniline released was measured using a spectrophotometer at 410 nm. The results are the means ±SD of triplicate measurements. The inhibitory activity is expressed as the inhibition ratio represented by the following formula: [formula]

[3] = system: fibroblast cell line BALB/3T3 clone A31; assay: UV protecting activity: viability of UVA-irradiated fibroblasts (MTT assay); format: cell-based, mouse; conditions: UVA-irradiated BALB/3T3 cells
Procedure: Exposure of skin to sunlight especially to ultraviolet A (320-380 nm) radiation has been reported to induce photochemical generation of reactive oxygen species, resulting in membrane lipid peroxidation, photodamage to DNA, and inactivation of fibroblasts. […] A mammalian fibroblast cell line was used to determine the UV-protective action of the blend and the components at a cellular level.
Dulbecco's Modified Eagle Medium (DMEM) with 4 mM L-glutamine and 110 mg/l sodium pyruvate, Dulbecco's phosphate buffered saline (DPBS) without calcium or magnesium, fetal bovine serum, trypsin-EDTA solution, 2-thiobarbituric acid, MTT, and trichloroacetic acid were obtained from Sigma. […] The capsule's contents were extracted in ethanol [0.5 g (contents of one capsule) in 5 ml ethanol and the components at concentrations incorporated in the blend in 5 ml ethanol]. The extracts were diluted using the culture medium or DPBS.
Cells were maintained in 250 ml Corning flasks having a 0.2 μ vented cap in 10 ml of DMEM supplemented with 10% fetal bovine serum. The cultures were incubated at 37° C. in a CO2 incubator with 90% air and 10% CO2. The cells were subcultured every 5 days.
Assays were performed in 35 mm Costar tissue culture plates. The cells were plated at a density of 90,000 cells per well in the growth medium and allowed to attach and grow for 48 hr. The medium was changed after 36 hr with fresh medium containing the extracts at different concentrations. After 12 hr of incubation with the test extracts, the cells were washed with DPBS to remove the original medium. One ml of DPBS with or without the test extracts was added to each dish. The cells were incubated for 1 hr before exposure to UV irradiation. Non-irradiated cells were used as the control. […] Biophys. […] The results are the means ±SD of triplicate measurements.

[4] = DPPH radical reduction (cell-free spectrophotometric assay); format: biochemical; conditions: at the dilutions tested
Procedure: as §1, §2

trypsin: activity of the components [2]	SMILES	superoxide: activity among the four components [1]	UV protection: activity of the components [3]	range of concentrations at which the component was active in the UV protection assay [3] [mg/mL]	DPPH: activity among the four components [4]
active	O=C(O)CCCCC1CCSS1 (stereo not shown) [lipoic acid, 6,8-thioctic acid]	most active	active	0.001 to 1	
active	CC1=C[C@H](O)CC(C)(C)[C@H]1/C=C/C(C)=C/C=C/C(C)=C/C=C/C=C(C)/C=C/C=C(C)/C=C/C1=C(C)C[C@@H](O)CC1(C)C [lutein]		active		most active

SMILES	trypsin: activity of the components [2]	superoxide: activity among the four components [1]	UV protection: activity of the components [3]	range of concentrations at which the component was active in the UV protection assay [3] [mg/mL]	DPPH: activity among the four components [4]
C[Se]CC[C@H](N)C(=O)O [selenium, selenomethionine]	active		active	1e-06 to 0.001	
